Test system: Methicillin-resistant Staphylococcus aureus (MRSA)
Assay: antimicrobial properties against MRSA (log killing)
Type: cell-based
Conditions: high dose (100 μg/ml)
Protocol: FIG. 2 compares the antimicrobial properties of chitosan and hydrophobically modified chitosan, alongside ampicillin, against Methicillin-resistant Staphylococcus aureus (MRSA). Hm-chitosan at 0.5 wt % achieves a log killing of >2, whereas native chitosan (0.5 wt %) achieves a log killing of ˜1. In contrast, ampicillin at high dose (100 μg/ml) achieves only ˜0.5 log killing.

CC1(C)S[C@@H]2[C@H](NC(=O)[C@H](N)c3ccccc3)C(=O)N2[C@H]1C(=O)O [ampicillin]
log killing: ~0.5 log

— patent publication US20200046870A1, “MATERIALS COMPRISING HYDROPHOBICALLY-MODIFIED BIOPOLYMER” (GEL-E LIFE SCIENCES, priority 2016, published 2020)
